Results reported in patent publication US12128034B2, “Combinations of beta-lactam compounds, probenecid, and valproic acid and uses thereof” (Iterum Therapeutics International Limited, priority 2020, dated 2024).

How the values were obtained:
[1] = may result in loss of seizure control; cited from earlier work
clinical = conditions: in vivo; for AUC(0-t): AUC0-t; for AUC: AUC0-tau
Experimental: For Cohorts 2 and 3, all patients were administered valproic acid daily. Starting on the fifth day, Cohort 3 was administered the sulopenem etzadroxil tablet (“Etzadroxil Tablet”) alone and Cohort 2 was administered the bilayer tablet of sulopenem etzadroxil and probenecid (500 mg sulopenem etzadroxil+500 mg probenecid film-coated bilayer tablet; “Bilayer Tablet”).

[2] = in vivo
Porphyromonas gingivalis = conditions: Ednie and Appelbaum 2009; cited from earlier work
[3] = Dacey and Sande 1974; cited from earlier work

SMILES: C[C@@H](O)[C@H]1C(=O)N2C(C(=O)O)=C(S[C@@H]3CN[C@H](C(=O)N(C)C)C3)[C@H](C)[C@H]12 [meropenem]
- serum valproic acid concentration in patients receiving carbapenem antibiotics [1]: clinically significant reduction

SMILES: C[C@@H](O)[C@H]1C(=O)N2C(C(=O)O)=C(S[C@H]3CC[S@@+]([O-])C3)S[C@H]12 [sulopenem]
- effect on the steady-state pharmacokinetic profile of valproic acid (clinical): weak effect
- tolerability and safety [2]: well tolerated and safe
- activity against Porphyromonas gingivalis (Porphyromonas gingivalis): active

SMILES: C[C@@H](O)[C@H]1C(=O)N2C(C(=O)O)=C(SCCN=CN)C[C@H]12 [imipenem]
- serum valproic acid concentration in patients receiving carbapenem antibiotics [1]: clinically significant reduction

SMILES: C[C@@H](O)[C@H]1C(=O)N2C(C(=O)O)=C(S[C@@H]3CN[C@H](C(=O)Nc4cccc(C(=O)O)c4)C3)[C@H](C)[C@H]12 [ertapenem]
- serum valproic acid concentration in patients receiving carbapenem antibiotics [1]: clinically significant reduction

SMILES: CCCN(CCC)S(=O)(=O)c1ccc(C(=O)O)cc1 [probenecid]
- time at which the impact of probenecid on valproic acid bioavailability can occur (clinical; human): as early as three days
- concentrations of β-lactam compounds in the cerebrospinal fluid [3]: increase

SMILES: CCCC(CCC)C(=O)O [VPA, valproic acid]
- tlast, Mean (SD) (clinical; male, human): 11.920 (0.0000) h
- AUC0-t, Mean (SD) (clinical; male, human, po): 570.83 (122.096) h · μg/mL
- AUC0-tau, Mean (SD) (clinical; male, human, po): 554.71 (140.804) h · μg/mL
- Tmax (clinical; male, human, po): 4 h
- tmax, Median (min, max) (clinical; male, human, po): 4.000 (2.00, 5.00) h
- AUC(0-t) (clinical; male, human, po, GM (CV %)): 517 µg·h/mL
- AUC(0-t) (clinical; male, human, po, Mean (SD)): 522 µg·h/mL
- AUC (clinical; male, human, po, GM (CV %)): 518 µg·h/mL
- AUC (clinical; male, human, po, Mean (SD)): 522 µg·h/mL
- tolerability and safety [2]: well tolerated and safe
